From PubChem BioAssay (NCI)
Several values for one entry are separate records, joined by “and”; a condition that tells them apart may be missing. Equal entries are not always repeated.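 Each compound was tested at five concentrations against cells in 96-well plates for 48 hours. GI50 = concentration required for 50% inhibition of growth. The concentration for full growth arrest is given as TGI.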

What was measured:
Assay in all cases: inhibition of tumour cell growth, NCI panel, 48 h
SNB-75 CNS = test system: SNB-75 CNS
RPMI-8226 leukemia = test system: RPMI-8226 leukemia
OVCAR-5 ovarian = test system: OVCAR-5 ovarian
U251 CNS = test system: U251 CNS
PC-3 prostate = test system: PC-3 prostate
UACC-62 melanoma = test system: UACC-62 melanoma
HS 578T breast = test system: HS 578T breast
SK-MEL-28 melanoma = test system: SK-MEL-28 melanoma
RXF 393 renal = test system: RXF 393 renal
MOLT-4 leukemia = test system: MOLT-4 leukemia

| SMILES | GI50 (SNB-75 CNS) [µM] | TGI (SNB-75 CNS) | GI50 (RPMI-8226 leukemia) | TGI (RPMI-8226 leukemia) | GI50 (OVCAR-5 ovarian) [µM] | TGI (OVCAR-5 ovarian) | GI50 (U251 CNS) [µM] | TGI (U251 CNS) | GI50 (PC-3 prostate) [µM] | TGI (PC-3 prostate) [µM] | GI50 (UACC-62 melanoma) [µM] | TGI (UACC-62 melanoma) | GI50 (HS 578T breast) [µM] | TGI (HS 578T breast) [µM] | GI50 (SK-MEL-28 melanoma) [µM] | TGI (SK-MEL-28 melanoma) | GI50 (RXF 393 renal) [µM] | TGI (RXF 393 renal) | GI50 (MOLT-4 leukemia) | TGI (MOLT-4 leukemia) |
| --- | --- | --- | --- | --- | --- | --- | --- | --- | --- | --- | --- | --- | --- | --- | --- | --- | --- | --- | --- | --- |
| CC(C)C(=O)c1c(C(F)(F)F)n([O-])c2cc(F)c(F)cc2[n+]1=O | 1.08 | 2.75 µM | 0.0666 µM | 12.3 µM | 1.24 | 2.58 µM | 0.2 | 0.43 µM | 0.521 | 1.13 | 0.666 | 1.92 µM | 0.598 | 2.64 | 0.55 | 3.15 µM | 0.456 | 1.19 µM | 0.0933 µM |  |
| O=C(c1ccccc1)c1c(C(F)(F)F)n([O-])c2cc(C(F)(F)F)ccc2[n+]1=O | 1.63 | 3.05 µM | 1.49 µM | 3.75 µM | 1.99 | 5.54 µM | 1.54 | 2.97 µM | 1.19 | 2.54 | 1.73 | 3.32 µM | 1.8 | 4.29 | 1.71 | 3.23 µM | 1.34 | 2.92 µM | 0.6 µM | 2.29 µM |
| C[n+]1c2ccccc2nc2ccccc21 | 1.38 | 3.1 µM | 0.343 µM | 16.3 µM | 1.66 | 3.56 µM | 1.44 | 3.09 µM | 1.06 | 12 | 1.41 | 2.99 µM | 0.953 | 3.72 | 1.59 | 3.1 µM | 1.7 | 4.29 µM | 4.19 µM | > 23.5 µM |
| Cc1nc2ccccn2c1NC(=O)NNC(=S)Nc1ccc(F)cc1 | > 100 | > 100 µM | > 100 µM | > 100 µM | > 100 | > 100 µM | > 100 | > 100 µM | > 100 | > 100 | > 100 | > 100 µM | > 100 | > 100 | > 100 | > 100 µM | > 100 | > 100 µM | 20.4 µM | > 100 µM |
| Cn1c(-c2ccccc2)c(/C=C/C2=[N+](C)c3ccccc3C2(C)C)c2ccccc21 | 1.63 | 10.7 µM | 0.167 µM | 0.911 µM | 3.96 | 20 µM | 0.46 | 12.8 µM | 0.575 | 9.16 | 0.6 | 3.97 µM | 1.08 | 16.6 | 1.19 | 11.8 µM | 2.55 | 12.6 µM | 1.06 µM | 4.06 µM |
| CCCCCCCC/C=C1\CCC(CN2CCOCC2)C1=O (configuration not stated) |  | 23.5 µM |  | 4.19 µM |  | 36.5 µM |  | 28 µM |  | 23.7 |  | 12.6 µM |  | 50.6 |  | 21.2 µM |  | 25.3 µM |  | 5.35 µM |
| O=C(/C=C1\C(=O)N(Cc2ccccc2)c2ccccc21)c1ccc(OCCN2CCCCC2)cc1 | 11.8 | 24.4 µM | 2.07 µM | 4.72 µM | 1.76 | 3.6 µM | 1.91 | 3.35 µM | 1.85 | 3.92 | 1.83 | 3.62 µM | 3 | 9.91 | 2.09 | 4.36 µM | 1.65 | 3.17 µM | 1.87 µM | 6.44 µM |
| Cc1c(N)nc(C(CC(N)=O)NCC(N)C(N)=O)nc1C(=O)NC(C(=O)NC(C)C(O)C(C)C(=O)NC(C(=O)NCCc1nc(-c2nc(C(=O)NCCCNC(C)c3ccccc3)cs2)cs1)C(C)O)C(OC1OC(CO)C(O)C(O)C1OC1OC(CO)C(O)C(OC(N)=O)C1O)c1cnc[nH]1 (configuration not stated) | 1.5 | 5.03 µM and 8.77 µM | 50.4 µM | 20.3 µM and > 100 µM | 2.21 | 47.2 µM and > 100 µM | 2.32 | 24 µM and 56.6 µM | 38.8 | > 100 |  | 8.82 µM |  | 0.727 |  | 50 µM |  | 2.82 µM | 3.75 µM | 25.9 µM and > 100 µM |
| O=c1oc2cc(OC/C(=N/O)c3ccc(F)cc3)ccc2c2ccccc12 | 23.7 | 43.9 µM | 31.8 µM | > 100 µM | 19.4 | 40 µM | 20.9 | 45.5 µM | 22.1 | 49.1 | 17.6 | 33 µM | 28.8 | 63.1 | 20 | 37.2 µM | 14.7 | 32.5 µM | 16.7 µM | 42.7 µM |
| Clc1ccc2nc(CI)c(CI)nc2c1 | 8.87 | 23.2 µM | 2.62 µM | 8.25 µM | 6.98 | 19.5 µM | 2.71 | 7.23 µM | 7.02 | 29.9 | 4.73 | 17.2 µM | 20.6 | > 65.5 | 14.4 | 27.7 µM | 4.04 | 9.36 µM | 1.89 µM | 9.08 µM |
| CO[C@H]1C[C@](C)(O)Cc2cc3c(c(O)c21)C(=O)c1c(O)cc2c(c1C3=O)O[C@@H]1O[C@@]2(C)[C@H](O)[C@@H](N(C)C)[C@@H]1O |  |  | 0.667 µM and 0.494 µM | 3.66 µM and 10.9 µM | 1.37 | 3.3 µM and 15 µM | 0.461 | 1.58 µM and 2.48 µM |  | 15.9 |  | 2.98 µM and 2.83 µM |  | 22.6 | 1.62 | 3.35 µM and 19.4 µM | 1.9 | 4.01 µM and 4.21 µM | 0.0296 µM and 0.0271 µM | 0.186 µM and 0.664 µM |
| CC1(C)OC(=O)C(C#N)=C1C[n+]1ccccc1 |  | > 10 µM |  | > 10 µM |  | > 10 µM |  | > 10 µM |  | > 10 |  |  |  | > 10 |  | > 10 µM |  | > 10 µM |  | > 10 µM |
| CN(C)CCCC1(c2ccc(F)cc2)OCc2cc(-c3cc4ccccc4s3)ccc21 (configuration not stated) | 1.24 | 2.58 µM |  |  | 1.58 | 2.92 µM | 1.63 | 3.02 µM | 1.5 | 2.99 | 1.79 | 3.24 µM | 1.8 | 3.96 | 1.81 | 3.22 µM | 1.42 | 2.86 µM | 1.52 µM | 3.08 µM |
